Among the data in publication PMC4913548 (OncoTargets and therapy, 2016) are EC50 values, retold here.

As usually defined, the EC50 is the concentration at which the effect is half-maximal. Read a low EC50 as higher potency in that assay.

In this test the target is estrogen receptor α (Homo sapiens, UniProt P03372). Briefly: ERE-Luc/catD-Luc reporter assay in SH-SY5Y cells. It is filed as cell-based. (In general: In a reporter assay the amount or activity of a reporter protein is the signal.)
Sequence of estrogen receptor α (P03372 whole entry): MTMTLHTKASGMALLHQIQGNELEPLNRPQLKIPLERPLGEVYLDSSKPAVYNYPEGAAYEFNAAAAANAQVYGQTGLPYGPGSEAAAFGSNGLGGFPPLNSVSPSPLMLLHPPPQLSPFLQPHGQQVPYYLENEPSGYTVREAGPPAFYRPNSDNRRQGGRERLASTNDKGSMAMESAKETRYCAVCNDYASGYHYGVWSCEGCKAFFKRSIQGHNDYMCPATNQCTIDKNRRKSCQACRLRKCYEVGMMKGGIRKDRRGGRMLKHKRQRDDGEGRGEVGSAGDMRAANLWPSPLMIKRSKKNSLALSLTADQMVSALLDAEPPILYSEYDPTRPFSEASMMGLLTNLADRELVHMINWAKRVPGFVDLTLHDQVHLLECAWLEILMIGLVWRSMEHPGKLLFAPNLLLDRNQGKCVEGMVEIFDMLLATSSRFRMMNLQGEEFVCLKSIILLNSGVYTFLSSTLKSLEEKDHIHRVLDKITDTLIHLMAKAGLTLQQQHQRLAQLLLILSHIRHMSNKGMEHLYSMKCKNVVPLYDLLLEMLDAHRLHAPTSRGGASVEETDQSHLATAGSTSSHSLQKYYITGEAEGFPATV

The substance nonylphenol displayed a concentration for a half-maximal effect (EC50) of 580 ± 250 nM.
